Reference: PubChem BioAssay AID1918956 (Molecular Pharmacology Branch, DTP, NCI, 2023)

Test system: OVCAR-5 complex spheroids, viability
Assay: Anticancer human tumor OVCAR-5 cell line growth inhibition;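 further: spheroids exposed to agents for seven days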;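 on viability, T/C: 100% = DMSO vehicle control wells viability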
Conditions: for IC50: curve of first compound; for viability, T/C: stronger effect = lower value
Outline: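 Multicellular complex spheroids of tumor cells with human endothelial cells (HUVEC) and mesenchymal stem cells; the LSD1 inhibitor iadademstat was combined with standard-of-care or investigational agents. Top concentration at or near clinical Cmax, half-log dilutions; final DMSO ≤0.25%.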

[1] = second compound 0.1 µM, first compound 0.00949 µM
[2] = second compound 0.1 µM, first compound 0.03 µM
[3] = second compound 0.1 µM, first compound 0.0949 µM
[4] = second compound 0.1 µM, first compound 0.3 µM
[5] = second compound 0.1 µM, first compound 0.949 µM
[6] = second compound 0.1 µM, first compound 3 µM
[7] = second compound 0.316 µM, first compound 0.00949 µM
[8] = second compound 0.316 µM, first compound 0.03 µM
[9] = second compound 0.316 µM, first compound 0.0949 µM
[10] = second compound 0.316 µM, first compound 0.3 µM
[11] = second compound 0.316 µM, first compound 0.949 µM
[12] = second compound 0.316 µM, first compound 3 µM
[13] = second compound 1 µM, first compound 0.00949 µM
[14] = second compound 1 µM, first compound 0.03 µM
[15] = second compound 1 µM, first compound 0.0949 µM
[16] = second compound 1 µM, first compound 0.3 µM
[17] = second compound 1 µM, first compound 0.949 µM
[18] = second compound 1 µM, first compound 3 µM
[19] = second compound 3.16 µM, first compound 0.00949 µM
[20] = second compound 3.16 µM, first compound 0.03 µM
[21] = second compound 3.16 µM, first compound 0.0949 µM
[22] = second compound 3.16 µM, first compound 0.3 µM
[23] = second compound 3.16 µM, first compound 0.949 µM
[24] = second compound 3.16 µM, first compound 3 µM
[25] = second compound 10 µM, first compound 0.00949 µM
[26] = second compound 10 µM, first compound 0.03 µM
[27] = second compound 10 µM, first compound 0.0949 µM
[28] = second compound 10 µM, first compound 0.3 µM
[29] = second compound 10 µM, first compound 0.949 µM
[30] = second compound 10 µM, first compound 3 µM

Structure (SMILES): Cn1ncnc1C1c2n[nH]c(=O)c3cc(F)cc(c23)NC1c1ccc(F)cc1 (stereo not given) + NC1CCC(NC2CC2c2ccccc2)CC1
- IC50 (second compound 0.1 µM): > 100 nM
- IC50 (second compound 0.316 µM): > 100 nM
- IC50 (second compound 1 µM): > 100 nM
- IC50 (second compound 3.16 µM): > 100 nM
- IC50 (second compound 10 µM): > 100 nM
- viability, T/C (second compound 0.1 µM, first compound 0.000316 µM): 109%
- viability, T/C (second compound 0.1 µM, first compound 0.001 µM): 95.3%
- viability, T/C (second compound 0.1 µM, first compound 0.00316 µM): 104%
- viability, T/C (second compound 0.1 µM, first compound 0.01 µM): 104%
- viability, T/C (second compound 0.1 µM, first compound 0.0316 µM): 99.5%
- viability, T/C (second compound 0.1 µM, first compound 0.1 µM): 100%
- viability, T/C (second compound 0.316 µM, first compound 0.000316 µM): 112%
- viability, T/C (second compound 0.316 µM, first compound 0.001 µM): 98.7%
- viability, T/C (second compound 0.316 µM, first compound 0.00316 µM): 98.3%
- viability, T/C (second compound 0.316 µM, first compound 0.01 µM): 96%
- viability, T/C (second compound 0.316 µM, first compound 0.0316 µM): 91.9%
- viability, T/C (second compound 0.316 µM, first compound 0.1 µM): 104%
- viability, T/C (second compound 1 µM, first compound 0.000316 µM): 109%
- viability, T/C (second compound 1 µM, first compound 0.001 µM): 96.2%
- viability, T/C (second compound 1 µM, first compound 0.00316 µM): 95.7%
- viability, T/C (second compound 1 µM, first compound 0.01 µM): 99.3%
- viability, T/C (second compound 1 µM, first compound 0.0316 µM): 99%
- viability, T/C (second compound 1 µM, first compound 0.1 µM): 94.3%
- viability, T/C (second compound 3.16 µM, first compound 0.000316 µM): 97.4%
- viability, T/C (second compound 3.16 µM, first compound 0.001 µM): 95.9%
- viability, T/C (second compound 3.16 µM, first compound 0.00316 µM): 87.9%
- viability, T/C (second compound 3.16 µM, first compound 0.01 µM): 91.3%
- viability, T/C (second compound 3.16 µM, first compound 0.0316 µM): 80.2%
- viability, T/C (second compound 3.16 µM, first compound 0.1 µM): 91.5%
- viability, T/C (second compound 10 µM, first compound 0.000316 µM): 86%
- viability, T/C (second compound 10 µM, first compound 0.001 µM): 107%
- viability, T/C (second compound 10 µM, first compound 0.00316 µM): 81.4%
- viability, T/C (second compound 10 µM, first compound 0.01 µM): 79%
- viability, T/C (second compound 10 µM, first compound 0.0316 µM): 67.6%
- viability, T/C (second compound 10 µM, first compound 0.1 µM): 81.3%

Structure (SMILES): NS(=O)(=O)OCC1CC(n2ccc3c(NC4CCc5ccccc54)ncnc32)CC1O (stereo not given) + NC1CCC(NC2CC2c2ccccc2)CC1
- IC50 (second compound 0.1 µM): 202 nM
- IC50 (second compound 0.316 µM): 223 nM
- IC50 (second compound 1 µM): 221 nM
- IC50 (second compound 3.16 µM): 179 nM
- IC50 (second compound 10 µM): 152 nM
- viability, T/C [1]: 122%
- viability, T/C [2]: 118%
- viability, T/C [3]: 76%
- viability, T/C [4]: 36.6%
- viability, T/C [5]: 16.2%
- viability, T/C [6]: 9.81%
- viability, T/C [7]: 139%
- viability, T/C [8]: 126%
- viability, T/C [9]: 84.8%
- viability, T/C [10]: 38.4%
- viability, T/C [11]: 15.5%
- viability, T/C [12]: 10.6%
- viability, T/C [13]: 108%
- viability, T/C [14]: 98.6%
- viability, T/C [15]: 80.8%
- viability, T/C [16]: 38.2%
- viability, T/C [17]: 17.9%
- viability, T/C [18]: 10.7%
- viability, T/C [19]: 98.8%
- viability, T/C [20]: 105%
- viability, T/C [21]: 69.2%
- viability, T/C [22]: 33.5%
- viability, T/C [23]: 16.4%
- viability, T/C [24]: 9.81%
- viability, T/C [25]: 101%
- viability, T/C [26]: 79.3%
- viability, T/C [27]: 64.7%
- viability, T/C [28]: 34%
- viability, T/C [29]: 14.3%
- viability, T/C [30]: 8.62%

Structure (SMILES): O=C(C=Cc1cccc(S(=O)(=O)Nc2ccccc2)c1)NO + NC1CCC(NC2CC2c2ccccc2)CC1
- IC50 (second compound 0.1 µM): 157 nM
- IC50 (second compound 0.316 µM): 172 nM
- IC50 (second compound 1 µM): 192 nM
- IC50 (second compound 3.16 µM): 167 nM
- IC50 (second compound 10 µM): 173 nM
- viability, T/C [1]: 98.5%
- viability, T/C [2]: 92.8%
- viability, T/C [3]: 62.8%
- viability, T/C [4]: 31.2%
- viability, T/C [5]: 15.3%
- viability, T/C [6]: 4.12%
- viability, T/C [7]: 95.7%
- viability, T/C [8]: 89.1%
- viability, T/C [9]: 64.6%
- viability, T/C [10]: 35.5%
- viability, T/C [11]: 14.4%
- viability, T/C [12]: 3.93%
- viability, T/C [13]: 106%
- viability, T/C [14]: 96%
- viability, T/C [15]: 69.7%
- viability, T/C [16]: 37.8%
- viability, T/C [17]: 14.3%
- viability, T/C [18]: 6.24%
- viability, T/C [19]: 88%
- viability, T/C [20]: 86.1%
- viability, T/C [21]: 62.2%
- viability, T/C [22]: 35.3%
- viability, T/C [23]: 15.6%
- viability, T/C [24]: 3.02%
- viability, T/C [25]: 89.5%
- viability, T/C [26]: 89.2%
- viability, T/C [27]: 60%
- viability, T/C [28]: 37.8%
- viability, T/C [29]: 16.7%
- viability, T/C [30]: 2.99%
